Solubility in solvents data for one compound are collected here from patent US9533937B2, “Use of metal scavengers for removal of ruthenium residues” (Apeiron Synthesis S.A., priority 2013, dated 2017).

This data set is described as follows: Solubility in solvents. It counts as physicochemical.

With `[C-]#[N+]CC(=O)[O-].[K+]` [CNCH2CO2K], the solubility in solvents result is “well soluble only in very polar solvents such as water and alcohols”.
